According to publication PMC10321483 (Chemical Science, 2023):

Target: T1, LdtMt2-ebselen complex (Mycobacterium tuberculosis, UniProt I6Y9J2)
T1 construct: made in house; host or cells: E. coli
Test: SPE-MS active-site selectivity assay with ebselen-preincubated LdtMt2
Assay type: binding
Details: inhibitor 100 µM, 24 h
Experimental: LdtMt2 contains only a single cysteine residue (Cys354). However, as several identified electrophiles are able to react with residues other than cysteine,[30,31] it was assessed whether covalent modification of LdtMt2 by the inhibitors is related to reaction with Cys354. […] Apparently complete LdtMt2 modification by a single molecule of ebselen (+274 Da) was observed. Inhibitors 1–21 were then added to the ebselen derived LdtMt2 complex (Fig. S11 ^†).
Figure S11. Protein observed SPE-MS based active -site selectivity assay s. LdtMt2 (1 µM) was 153 preincubated with ebselen (10 µM, a known Ldt Mt2 inhibitor3, which reacts with the nucleophilic 154 Cys354) for 1 h in 50 mM Tris, pH 7.5 , prior to addition of inhibitors 1-15 (100 µM). Samples were 155 analysed after an additional 24 h incubation at room temperature. The spectrum in blue corresponds 156 to LdtMt2 reacted with ebselen. The spectrum in green corresponds to LdtMt2 reacted with the specified 157 inhibitor, following preincubation with ebselen. The spectrum in purple corresponds to LdtMt2 reacted 158 with the specified inhibitor. Deconvoluted spectra, obtained using the maximum entropy algorithm in 159 the MassHunter Workstation Qualitative Analysis B.07.00 program (Agilent), are shown. 160
(1 picture or pasted object on this page, not shown here)

T1 sequence (I6Y9J2 56-408, one chain of several): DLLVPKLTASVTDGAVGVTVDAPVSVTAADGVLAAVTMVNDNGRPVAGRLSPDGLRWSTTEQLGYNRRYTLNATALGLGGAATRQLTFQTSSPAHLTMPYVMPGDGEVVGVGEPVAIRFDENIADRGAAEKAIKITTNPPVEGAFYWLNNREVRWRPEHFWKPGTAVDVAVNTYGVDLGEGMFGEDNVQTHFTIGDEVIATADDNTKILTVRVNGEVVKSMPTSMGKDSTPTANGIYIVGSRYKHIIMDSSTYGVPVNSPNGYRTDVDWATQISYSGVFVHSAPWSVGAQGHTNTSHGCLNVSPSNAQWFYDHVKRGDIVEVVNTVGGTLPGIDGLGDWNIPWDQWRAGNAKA

Row | SMILES | reaction with the LdtMt2-ebselen complex (Cys354 unavailable)
1 | CC(C)(C)OC(=O)Nc1ccc(N2C(=O)C=CC2=O)cc1 [Compound 6] | observed to react with the LdtMt2-ebselen complex
2 | CCOc1ccc(CN2C(=O)C(=O)c3cc(Br)cc(C)c32)cc1OC [Compound 16] | observed to react with the LdtMt2-ebselen complex
3 | COc1ccc(CN2C(=O)C(=O)c3cc(Br)cc(C)c32)cc1OC [Compound 17] | observed to react with the LdtMt2-ebselen complex
